Assay results: the NIST ThermoML archive (doi:10.1016/j.jct.2015.09.020)

Experiment: mn = molality of the nth substance listed, in mol/kg
Conditions: 101.3 kPa, Liquid

Cl.NCC(=O)O [glycine hydrochloride] + O
Conditions | speed of sound [m/s]
278.15 K, Frequency=2 MHz, Linear variable-path acoustic interferometer, m1 = 0.0508 | 1430.8
278.15 K, Frequency=2 MHz, Linear variable-path acoustic interferometer, m1 = 0.0811 | 1433.6
278.15 K, Frequency=2 MHz, Linear variable-path acoustic interferometer, m1 = 0.1008 | 1435
278.15 K, Frequency=2 MHz, Linear variable-path acoustic interferometer, m1 = 0.1202 | 1436.2
278.15 K, Frequency=2 MHz, Linear variable-path acoustic interferometer, m1 = 0.1499 | 1438.3
278.15 K, Frequency=2 MHz, Linear variable-path acoustic interferometer, m1 = 0.1801 | 1441.1
278.15 K, Frequency=2 MHz, Linear variable-path acoustic interferometer, m1 = 0.2112 | 1443.2
278.15 K, Frequency=2 MHz, Linear variable-path acoustic interferometer, m1 = 0.2325 | 1445.3
278.15 K, Frequency=2 MHz, Linear variable-path acoustic interferometer, m1 = 0.2472 | 1445.9
278.15 K, Frequency=2 MHz, Linear variable-path acoustic interferometer, m1 = 0.2732 | 1448
278.15 K, Frequency=2 MHz, Linear variable-path acoustic interferometer, m1 = 0.2995 | 1449.7
278.15 K, Frequency=2 MHz, Linear variable-path acoustic interferometer, m1 = 0.3208 | 1451.3
278.15 K, Frequency=2 MHz, Linear variable-path acoustic interferometer, m1 = 0.3529 | 1454.1
288.15 K, Frequency=3 MHz, Sing-around technique in a fixed-path interferometer, m1 = 0.05 | 1469.8
288.15 K, Frequency=3 MHz, Sing-around technique in a fixed-path interferometer, m1 = 0.0802 | 1471.7
288.15 K, Frequency=3 MHz, Sing-around technique in a fixed-path interferometer, m1 = 0.1002 | 1473.1
288.15 K, Frequency=3 MHz, Sing-around technique in a fixed-path interferometer, m1 = 0.1216 | 1474.5
288.15 K, Frequency=3 MHz, Sing-around technique in a fixed-path interferometer, m1 = 0.1506 | 1476.6
288.15 K, Frequency=3 MHz, Sing-around technique in a fixed-path interferometer, m1 = 0.1821 | 1479
288.15 K, Frequency=3 MHz, Sing-around technique in a fixed-path interferometer, m1 = 0.21 | 1480.8
288.15 K, Frequency=3 MHz, Sing-around technique in a fixed-path interferometer, m1 = 0.2318 | 1482.2
288.15 K, Frequency=3 MHz, Sing-around technique in a fixed-path interferometer, m1 = 0.2508 | 1483.4
288.15 K, Frequency=3 MHz, Sing-around technique in a fixed-path interferometer, m1 = 0.2723 | 1484.8
288.15 K, Frequency=3 MHz, Sing-around technique in a fixed-path interferometer, m1 = 0.3012 | 1486.4
288.15 K, Frequency=3 MHz, Sing-around technique in a fixed-path interferometer, m1 = 0.3205 | 1488.1
288.15 K, Frequency=3 MHz, Sing-around technique in a fixed-path interferometer, m1 = 0.3534 | 1489.9
298.15 K, Frequency=3 MHz, Sing-around technique in a fixed-path interferometer, m1 = 0.0515 | 1500
298.15 K, Frequency=3 MHz, Sing-around technique in a fixed-path interferometer, m1 = 0.0839 | 1502
298.15 K, Frequency=3 MHz, Sing-around technique in a fixed-path interferometer, m1 = 0.1035 | 1503.3
298.15 K, Frequency=3 MHz, Sing-around technique in a fixed-path interferometer, m1 = 0.1305 | 1504.9
298.15 K, Frequency=3 MHz, Sing-around technique in a fixed-path interferometer, m1 = 0.1453 | 1505.9
298.15 K, Frequency=3 MHz, Sing-around technique in a fixed-path interferometer, m1 = 0.185 | 1508.2
298.15 K, Frequency=3 MHz, Sing-around technique in a fixed-path interferometer, m1 = 0.2073 | 1509.4
298.15 K, Frequency=3 MHz, Sing-around technique in a fixed-path interferometer, m1 = 0.2401 | 1511.3
298.15 K, Frequency=3 MHz, Sing-around technique in a fixed-path interferometer, m1 = 0.2727 | 1513.2
298.15 K, Frequency=3 MHz, Sing-around technique in a fixed-path interferometer, m1 = 0.3029 | 1514.9
298.15 K, Frequency=3 MHz, Sing-around technique in a fixed-path interferometer, m1 = 0.3177 | 1515.8
298.15 K, Frequency=3 MHz, Sing-around technique in a fixed-path interferometer, m1 = 0.3535 | 1517.9

Conditions | mass density [kg/m3]
278.15 K, Pycnometric method, m1 = 0.0508 | 1002.4
278.15 K, Pycnometric method, m1 = 0.0811 | 1003.61
278.15 K, Pycnometric method, m1 = 0.1008 | 1004.87
278.15 K, Pycnometric method, m1 = 0.1202 | 1005.41
278.15 K, Pycnometric method, m1 = 0.1499 | 1006.88
278.15 K, Pycnometric method, m1 = 0.1801 | 1008.05
278.15 K, Pycnometric method, m1 = 0.2112 | 1009.37
278.15 K, Pycnometric method, m1 = 0.2325 | 1010.42
278.15 K, Pycnometric method, m1 = 0.2472 | 1011.07
278.15 K, Pycnometric method, m1 = 0.2732 | 1012.17
278.15 K, Pycnometric method, m1 = 0.2995 | 1013.21
278.15 K, Pycnometric method, m1 = 0.3208 | 1014.01
278.15 K, Pycnometric method, m1 = 0.3529 | 1015.11
288.15 K, Vibrating tube method, m1 = 0.05 | 1001.39
288.15 K, Vibrating tube method, m1 = 0.0802 | 1002.72
288.15 K, Vibrating tube method, m1 = 0.1002 | 1003.61
288.15 K, Vibrating tube method, m1 = 0.1216 | 1004.54
288.15 K, Vibrating tube method, m1 = 0.1506 | 1005.74
288.15 K, Vibrating tube method, m1 = 0.1821 | 1007.14
288.15 K, Vibrating tube method, m1 = 0.21 | 1008.37
288.15 K, Vibrating tube method, m1 = 0.2318 | 1009.27
288.15 K, Vibrating tube method, m1 = 0.2508 | 1010.04
288.15 K, Vibrating tube method, m1 = 0.2723 | 1010.95
288.15 K, Vibrating tube method, m1 = 0.3012 | 1012.17
288.15 K, Vibrating tube method, m1 = 0.3205 | 1012.97
288.15 K, Vibrating tube method, m1 = 0.3534 | 1014.37
298.15 K, Vibrating tube method, m1 = 0.0839 | 1000.75
298.15 K, Vibrating tube method, m1 = 0.1035 | 1001.57
298.15 K, Vibrating tube method, m1 = 0.1305 | 1002.87
298.15 K, Vibrating tube method, m1 = 0.1453 | 1003.51
298.15 K, Vibrating tube method, m1 = 0.185 | 1005.13
298.15 K, Vibrating tube method, m1 = 0.2073 | 1005.96
298.15 K, Vibrating tube method, m1 = 0.2401 | 1007.29
298.15 K, Vibrating tube method, m1 = 0.2727 | 1008.59
298.15 K, Vibrating tube method, m1 = 0.3029 | 1009.81
298.15 K, Vibrating tube method, m1 = 0.3177 | 1010.44
298.15 K, Vibrating tube method, m1 = 0.3535 | 1011.84
